One data set concerns mammals. The settings on record: cited from earlier work.
The conditions of data set [1]: cited from earlier work.
A further data set concerns cavernous nerves. In words: NIRF intraoperative imaging of rat cavernous nerves after injection of ICG into the crura. The conditions noted are these: rats. It is filed as in vivo.
The mark [2] stands for this setting: mammals, several months after the treatment.

Entries after “also recorded” stand apart in the source; their conditions may differ. Where two headings read alike, the source gives them in different places.

From the text for cavernous nerves: The area was examined for retrograde axonal transport at different time points, using a NIRF intraoperative imaging system (SPY®, Novadaq Technologies Inc., Mississauga, Ontario, Canada) that illuminates tissues with a 805 nm laser and captures images with a camera sensitive to infrared fluorescence. Near infrared microscopy and conventional histology were used to confirm the macroscopically identified fluorescent structures. […] (These were specific time points at which examinations were made. […] The fluorescent nerves were then excised.

As to `N=C(N)c1ccc(/C=C/c2ccc(C(=N)N)cc2O)cc1` [Fluorogold], the neuronal toxicity result with mammals (setting [2]) is reported as “without evidence of neuronal toxicity”; in the data set on mammals (used in mammals), “low evidence of neuronal toxicity”.
As for `CC1(C)C(/C=C/C=C/C=C/C=C2\N(CCCCS(=O)(=O)O)c3ccc4ccccc4c3C2(C)C)=[N+](CCCCS(=O)(=O)[O-])c2ccc3ccccc3c21` [ICG, indocyanine green], the distribution result in data set [1] (after intravenous injection, with normal vascular permeability) is “remains intravascular”. In data set [1] (after intravenous injection), the excretion entry is on record as “excreted exclusively by the liver” and the “metabolism in the body” value was “not metabolized”. In addition, in data set [1] (in vivo), the enterohepatic recirculation result is on record as “does not undergo enterohepatic recirculation” and the “reabsorption from the intestine” value is recorded as “not reabsorbed”. The neuronal toxicity entry in the data set on mammals (setting [2]) was “without evidence of neuronal toxicity”. The neuronal toxicity entry in the data set on mammals (used in mammals) is listed as “low evidence of neuronal toxicity”. Also, in the data set with cavernous nerves (ICG injected into both crura, examined at 6, 8, 12, 18, 24 and 36 hours post injection, NIRF imaging (SPY)), the “identification of the cavernous nerves by fluorescence” value is given as “permitted identification of the nerves; also recorded: nerves were identified in situ”. The “fluorescence of the cavernous nerves at longer post-injection periods” value in the data set on cavernous nerves (ICG injected into crura, e.g. 30 days post-injection) is recorded as “not detectable”.
In the case of Fast Blue, the neuronal toxicity result is given as “without evidence of neuronal toxicity” in the data set on mammals (setting [2]) and “low evidence of neuronal toxicity” in the data set with mammals (used in mammals).

These data come from patent publication US20070122344A1, “Intraoperative determination of nerve location” (University of Rochester Medical Center Office of Technology …, priority 2005, published 2007).
